Assay results: paper PMC5413024, “Mechanistic insights into the more potent effect of KP-54 compared to KP-10 in vivo” (PLoS ONE, 2017)
Values after ≈ are worked out from the molar mass of the structure shown. Ends that are not written are not given here.

Assays:
[1] = men / humans; ref [5], [30] (KP-10), ref [5] (KP-54); cited from earlier work
Excerpt: It should be noted, however that the RIA used to measure KP-54 may also detect shorter breakdown products of this protein that might be biologically inert. It is likely that the lack of GnRH neuronal activation and sustained LH release by KP-10 is mainly due to its instability. It is noteworthy that we failed ...

[2] = from the product data sheets; ref product data sheets (manufacturer); cited from earlier work
Method: KP-10 [human Metastin (45–54) amide, M-2816] was purchased from Sigma-Aldrich. KP-10 consists of the C-terminal 10-amino acids of KP-54. Human KP-54 was synthesized by the Advanced Biotechnology Centre, Imperial College, London, UK. BSA-FITC was purchased from Sigma (A9771). From the product data sheets, the solubility of KP-10 and KP-54 in water is 1mg/ml. We prepared stock solutions in sterile PBS at 100 μM, which is almost ten times lower than the solubility limit set by the manufacturer. The 100 μM stock solution was diluted in sterile PBS and 100 μl of the working solution was injected to ...

[3] = Study 4: pharmacokinetics of plasma kisspeptin after i.p. injection (radioimmunoassay); format: in vivo, mouse; details: male mice
Method: Male mice received a single i.p. injection of 1 nmol KP-10 or 1 nmol KP-54. 100 μl of blood was collected from the lateral tail vein from groups of mice (n = 4) for each time point (0, 1 min, 2 min, 5 min, 10 min, 30 min, 60 min and 120 min). Terminal bleeds were collected from the vena cava. Blood was mixed with 5 μl EDTA, centrifuged at 10,000 x g for 10 min at 4°C to obtain the plasma fraction, and stored at -20°C until assayed. Kisspeptin concentrations were measured using an established in house competitive radioimmunoassay (RIA, [5]. Briefly, this RIA uses a sheep polyclonal antibody (GQ2), raised against human KP-54, which cross-reacts with human KP-54, KP-14 and KP-10.
3–5 month old wild-type (129S6/SvEv) male mice were used in this study. The mice were housed in open cages on a 12 hour light cycle (lights on at 0700 h) at a controlled temperature (22°C), and were provided with food and water ad libitum. All experiments were performed under the authority of a United Kingdom Home Office Project License and were approved by a Cambridge Animal Ethics Committee.

[4] = test system: LH secretion; test: S1 Fig: plasma LH after i.p. injection of penetratin-extended Kp10; format: in vivo, mouse; details: single 100 μl i.p. injection, blood at 10 min and 2 hrs, n = 2 per treatment
Method: Supplementary file pone.0176821.s001.tif: S1 Fig Kisspeptin-penetratin treatment. This experiment aimed at facilitating Kp10 to cross the blood-brain-barrier by adding a penetratin extension to the […] end of Kp10, thereby putatively provided with higher permeability. Two penetratin variants were tested: the pen(ala2) residue has a lower protein transduction domain activity than pen-Kp10. […] Each animal received a single 100 μl i.p. injection of either PBS, Kp10, Kp54, Pen-Kp10 or Pen(ala2)-Kp10. Blood samples were collected at 10 min (from tail vein) and 2 hrs (from vena cava upon sacrifice) time points after administration. […] (TIF) Click here for additional data file.

In the case of `CC(C)C[C@H](NC(=O)CNC(=O)[C@H](Cc1ccccc1)NC(=O)[C@H](CO)NC(=O)[C@H](CC(N)=O)NC(=O)[C@H](Cc1c[nH]c2ccccc12)NC(=O)[C@H](CC(N)=O)NC(=O)[C@@H](N)Cc1ccc(O)cc1)C(=O)N[C@@H](CCCNC(=N)N)C(=O)N[C@@H](Cc1ccccc1)C(N)=O` [KP-10, human Metastin (45–54) amide], the “half-life in the blood stream in humans” value [1] is listed as 3.8 min, the solubility in water [2] is listed as 1000 µg/mL (≈ 768 µM) and the “peak (maximum) plasma kisspeptin level” value ([3]; 1 nmol i.p., RIA (GQ2 antibody), mean ± SEM, n = 4 per time point) is listed as 248 ± 9 pmol/L. For the same compound, the “plasma kisspeptin level by 10 min post-injection” value ([3]; 1 nmol i.p., RIA, n = 4) was “undetectable”, the “time of peak plasma kisspeptin level post-injection” value ([3]; 1 nmol i.p., RIA, n = 4 per time point) was 2 min and the plasma half-life ([3]; 1 nmol i.p., estimated from RIA plasma levels, RIA recognises all forms of Kp, may include breakdown products) was “about 4 min”. The “fraction of the injected peptide entering the bloodstream after intraperitoneal injection” value ([3]; 1 nmol i.p., assuming a total blood volume of approximately 5 ml) was “around 0.13%” and the “peak level in the bloodstream, times lower than that of KP-54” value ([3]; equimolar 1 nmole i.p., 250 pmol/L vs 12000 pmol/L) was about 50 times.

In the case of “NRRMAWAKYYNWNSFGLRF-NH2 [Pen(ala2)-Kp10]”, the “effect of penetratin extension on Kp10-induced LH secretion” value [4] is reported as “does not improve the Kp10-induced LH secretion”.

In the case of NRRMKWKKYYNWNSFGLRF-NH2 [Pen-Kp10], the “effect of penetratin extension on Kp10-induced LH secretion” value [4] is reported as “does not improve the Kp10-induced LH secretion”.
